Measured values: patent US20090068290A1, “BIFEPRUNOX DOSES FOR TREATING SCHIZOPHRENIA” (priority 2006, published 2009)

Columns and labels:
[1] = test system: adult subjects with schizophrenia; assay: PANSS total score, Clinical Study Two (6-week, risperidone-referenced); assay type: in vivo, human; conditions: LOCF; for Change from Baseline in PANSS Total Score, Mean (SD) / Change from Baseline in PANSS Total Score, Median / PANSS Total Score, Trt Effect (difference between bifeprunox and placebo): ITT; for PANSS Total Score, Trt Effect (difference between bifeprunox and placebo): ANCOVA
Protocol: Treatment started with a single-blind placebo lead-in period of at least three days, followed by titration from 0.25 mg up to 30 mg/day or 40 mg/day of bifeprunox for bifeprunox-treated subjects.
(§1) Rating scale assessments were performed weekly, except for week 5, to measure the change from baseline to endpoint of the PANSS total score. Other assessments included: PANSS positive symptom subscale score, PANSS negative symptom subscale score, PANSS general pschopathology subscale score, BPRS total score, BPRS psychosis score, the CGI-S score, the CGI-I score, responder rates based on the PANSS total score, and the Calgary Depression Scale for Schizophrenia (CDSS).
Subjects who completed this study had the option to continue in the long-term. […] After completing a Single-Blind placebo lead-in period of at least three days, bifeprunox-treated subjects were titrated from 0.25 mg up to 30 mg/day or 40 mg/day according to a standardized titration scheme over an eight-day period. When the assigned dose was reached, subjects were maintained at that dose for the remainder of the six week treatment period. […] Rating scale assessments for efficacy and abnormal movement disorders were done weekly except for Week 5. Safety assessments were performed at Screening, during treatment and at the end of the study. Subject satisfaction with study medication was assessed at Week 6. Samples of blood were obtained at Weeks 2, 4, and 6 for determination of bifeprunox in plasma. Blood samples were also obtained at Screening/Baseline, Week 3, and Week 6 for clinical laboratory assessments.
Diagnosis and Main Criteria for Inclusion: Male or female subjects 18-75 years of age with schizophrenia (per DSM-IV-TR criteria). Subjects had to have a total score on the PANSS between 70 and 120; at least two of four PANSS items (conceptual disorganization, hallucinatory behavior, suspiciousness, unusual thought content) had to have a score ≧4; and the score on the CGI-S had to be at least 4.

[2] = test system: adult subjects with schizophrenia; assay: CGI Severity of Illness score, Clinical Study Two; assay type: in vivo, human; conditions: for Change from Baseline in CGI Severity of Illness Score, Mean (SD) / Change from Baseline in CGI Severity of Illness Score, Median / Change from Baseline in CGI Severity of Illness Score, Trt Effect (bifeprunox—placebo): LOCF, ITT population
Protocol: as §1, with “(CDSS). […]” for “(CDSS).”
Subjects who completed this study had the option to continue in the long-term. […] Risperidone-treated subjects were titrated from 2 mg to 6 mg daily over a three-day period and were subsequently maintained at 6 mg/day for the remainder of the treatment period. […] Blood samples were also obtained at Screening/Baseline, Week 3, and Week 6 for clinical laboratory assessments.

[3] = Bifeprunox 30 mg, Week 6/Endpoint
[4] = Bifeprunox 40 mg, Week 6/Endpoint

For `O=c1[nH]c2cccc(N3CCN(Cc4cccc(-c5ccccc5)c4)CC3)c2o1` [Bifeprunox, 7-[4-([1,1′-biphenyl]-3-ylmethyl)-1-piperazinyl]-2(3H)-benzoxazolone], the “Change from Baseline in PANSS Total Score, Mean (SD)” value ([1]; Bifeprunox 30 mg, Week 1) was −6.6 (11.8), the “Change from Baseline in PANSS Total Score, Median” value ([1]; Bifeprunox 30 mg, Week 1) was −5 and the “Change from Baseline in PANSS Total Score, Mean (SD)” value ([1]; Bifeprunox 30 mg, Week 2) was −11.6 (15.5). For the same compound, the “Change from Baseline in PANSS Total Score, Median” value ([1]; Bifeprunox 30 mg, Week 2) was −10, the “Change from Baseline in PANSS Total Score, Mean (SD)” value ([1]; Bifeprunox 30 mg, Week 3) was −13.3 (17.8) and the “Change from Baseline in PANSS Total Score, Median” value ([1]; Bifeprunox 30 mg, Week 3) was −10. For the same compound, the “Change from Baseline in PANSS Total Score, Mean (SD)” value ([1]; Bifeprunox 30 mg, Week 4) was −13.6 (18.9), the “Change from Baseline in PANSS Total Score, Median” value ([1]; Bifeprunox 30 mg, Week 4) was −10 and the “Change from Baseline in PANSS Total Score, Mean (SD)” value [1, 3] was −13.5 (20.1). For the same compound, the “Change from Baseline in PANSS Total Score, Median” value [1, 3] was −10, the “PANSS Total Score, Trt Effect (difference between bifeprunox and placebo)” value [1, 3] was −5.9 and the “Change from Baseline in PANSS Total Score, Mean (SD)” value ([1]; Bifeprunox 40 mg, Week 1) was −6.7 (11.5). The “Change from Baseline in PANSS Total Score, Median” value ([1]; Bifeprunox 40 mg, Week 1) was −6, the “Change from Baseline in PANSS Total Score, Mean (SD)” value ([1]; Bifeprunox 40 mg, Week 2) was −8.9 (15.6) and the “Change from Baseline in PANSS Total Score, Median” value ([1]; Bifeprunox 40 mg, Week 2) was −8. The “Change from Baseline in PANSS Total Score, Mean (SD)” value ([1]; Bifeprunox 40 mg, Week 3) was −10.0 (17.8), the “Change from Baseline in PANSS Total Score, Median” value ([1]; Bifeprunox 40 mg, Week 3) was −10 and the “Change from Baseline in PANSS Total Score, Mean (SD)” value ([1]; Bifeprunox 40 mg, Week 4) was −9.2 (18.8). For the same compound, the “Change from Baseline in PANSS Total Score, Median” value ([1]; Bifeprunox 40 mg, Week 4) was −7, the “Change from Baseline in PANSS Total Score, Mean (SD)” value [1, 4] was −10.3 (20.5) and the “Change from Baseline in PANSS Total Score, Median” value [1, 4] was −7. For the same compound, the “PANSS Total Score, Trt Effect (difference between bifeprunox and placebo)” value [1, 4] was −3.2, the “difference from placebo, change from Baseline to Endpoint in PANSS total score” value ([1]; bifeprunox 30 mg (b57 prints 20 mg)) was “statistically significant difference from placebo” and the “greater improvement from Baseline to Endpoint in PANSS total score compared with placebo” value ([1]; bifeprunox 30 mg) was 5.9 point. The “PANSS Total Score, treatment effect versus placebo” value ([1]; bifeprunox 30 mg, week 2) was −5.6, the “PANSS Total Score, treatment effect versus placebo” value ([1]; bifeprunox 30 mg, week 4) was −6.3 and the “difference from placebo, change from Baseline to Endpoint in PANSS total score” value ([1]; bifeprunox 40 mg) was “not significantly different from the placebo group”. The “Change from Baseline in CGI Severity of Illness Score, Mean (SD)” value (“Change from Baseline in CGI Severity … (SD)” for short) ([2]; Bifeprunox 30 mg, Week 1) was −0.33 (0.77), the “Change from Baseline in CGI Severity of Illness Score, Median” value (“Change … of Illness Score, Median” below) ([2]; Bifeprunox 30 mg, Week 1) was 0.0 and the “Change from Baseline in CGI Severity … (SD)” value ([2]; Bifeprunox 30 mg, Week 2) was −0.58 (0.97). The “Change … of Illness Score, Median” value ([2]; Bifeprunox 30 mg, Week 2) was 0.0, the “Change from Baseline in CGI Severity … (SD)” value ([2]; Bifeprunox 30 mg, Week 3) was −0.67 (1.08) and the “Change … of Illness Score, Median” value ([2]; Bifeprunox 30 mg, Week 3) was 0.0. For the same compound, the “Change from Baseline in CGI Severity … (SD)” value ([2]; Bifeprunox 30 mg, Week 4) was −0.68 (1.11), the “Change … of Illness Score, Median” value ([2]; Bifeprunox 30 mg, Week 4) was 0.0 and the “Change from Baseline in CGI Severity … (SD)” value [2, 3] was −0.69 (1.19). The “Change … of Illness Score, Median” value [2, 3] was 0.0, the “Change from Baseline in CGI Severity of Illness Score, Trt Effect (bifeprunox—placebo)” value [2, 3] was −0.28 and the “Change from Baseline in CGI Severity … (SD)” value ([2]; Bifeprunox 40 mg, Week 1) was −0.28 (0.65). For the same compound, the “Change … of Illness Score, Median” value ([2]; Bifeprunox 40 mg, Week 1) was 0.0, the “Change from Baseline in CGI Severity … (SD)” value ([2]; Bifeprunox 40 mg, Week 2) was −0.43 (0.90) and the “Change … of Illness Score, Median” value ([2]; Bifeprunox 40 mg, Week 2) was 0.0. For the same compound, the “Change from Baseline in CGI Severity … (SD)” value ([2]; Bifeprunox 40 mg, Week 3) was −0.54 (1.02), the “Change … of Illness Score, Median” value ([2]; Bifeprunox 40 mg, Week 3) was 0.0 and the “Change from Baseline in CGI Severity … (SD)” value ([2]; Bifeprunox 40 mg, Week 4) was −0.51 (1.08). For the same compound, the “Change … of Illness Score, Median” value ([2]; Bifeprunox 40 mg, Week 4) was 0.0, the “Change from Baseline in CGI Severity … (SD)” value [2, 4] was −0.54 (1.12) and the “Change … of Illness Score, Median” value [2, 4] was 0.0. The “Change from Baseline in CGI Severity of Illness Score, Trt Effect (bifeprunox—placebo)” value [2, 4] was −0.18 and the “CGI severity of illness score, treatment effect (bifeprunox—placebo)” value ([2]; bifeprunox 30 mg, Endpoint LOCF) was −0.28.
